# Measured values as given in ChEMBL document CHEMBL5137036, “Design and synthesis of highly TRAIL expression HDAC inhibitors based on ONC201 to promote apoptosis of colorectal cancer” (Eur J Med Chem, 2022).
# The source made the active and inactive calls. No cut-off for these calls is given here.
# Assays:
# [1] = Toxicity in BALB/c mouse xenografted with human HCT-116 cells assessed as morphological changes in kidney at 12.5 to 25 mg/kg, po qd administered for 21 days by H & E staining based microscopic analysis; assay type: organism-based; settings: in vivo, 504 h, dose 12.5-25 mg/kg, time 21 day
# HCT-116 [2] = experiment: Induction of apoptosis in human HCT-116 cells assessed as dead cells at 0.5 uM incubated for 24 hrs by AnnexinV-FITC/PI staining based flow cytometry (reference value: 4.62 %); assay type: functional
# Histone deacetylase 1 [3] = target: T1, Histone deacetylase 1 (Homo sapiens, UniProt Q13547); experiment: Inhibition of HDAC1 in human HCT-116 cells assessed as increase in DR5 protein expression at 0.5 uM incubated for 12 hrs by Western blot analysis; assay type: cell-based
# T1 sequence (Q13547 whole entry): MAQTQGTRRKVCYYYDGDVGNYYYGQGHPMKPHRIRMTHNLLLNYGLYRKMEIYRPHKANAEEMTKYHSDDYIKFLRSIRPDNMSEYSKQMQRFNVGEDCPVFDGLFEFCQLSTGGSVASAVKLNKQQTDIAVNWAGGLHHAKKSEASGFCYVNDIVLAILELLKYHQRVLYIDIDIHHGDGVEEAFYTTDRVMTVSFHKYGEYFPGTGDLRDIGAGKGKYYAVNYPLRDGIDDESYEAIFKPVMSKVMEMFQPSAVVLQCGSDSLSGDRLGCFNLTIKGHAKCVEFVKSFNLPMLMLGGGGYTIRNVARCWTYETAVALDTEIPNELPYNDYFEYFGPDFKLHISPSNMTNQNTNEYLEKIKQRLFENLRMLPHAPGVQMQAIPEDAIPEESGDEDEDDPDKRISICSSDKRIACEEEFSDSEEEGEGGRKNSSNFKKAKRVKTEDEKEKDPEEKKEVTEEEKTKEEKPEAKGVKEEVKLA
# HCT-116 [4] = experiment: Induction of apoptosis in human HCT-116 cells assessed as increase in caspase-8 protein expression incubated for 12 hrs by Western blot analysis; assay type: functional, cell-based; settings: dose 0.125-0.5 µM, DDE = dose-dependent effect
# [5] = Toxicity in BALB/c mouse xenografted with human HCT-116 cells assessed as reduction in body weight at 12.5 to 25 mg/kg, po qd administered for 3 weeks; assay type: organism-based; settings: in vivo, 504 h, dose 12.5-25 mg/kg
# MV4-11 = experiment: Antiproliferative activity against human MV4-11 cells assessed as inhibition of cell growth incubated for 72 hrs by luminescence based analysis; assay type: functional; settings: MV4-11, 72 h
# HCT-116 [6] = experiment: Induction of apoptosis in human HCT-116 cells assessed as early apoptotic cells at 0.125 uM incubated for 24 hrs by AnnexinV-FITC/PI staining based flow cytometry (reference value: 0.93 %); assay type: functional
# HCT-116 [7] = experiment: Effect on DR5 protein expression in human HCT-116 cells incubated for 12 hrs by Western blot analysis; assay type: functional, cell-based; settings: dose 0.125-0.5 µM, DDE = dose-dependent effect
# Histone deacetylase 4 = Histone deacetylase 4 (Homo sapiens, UniProt P56524); experiment: Inhibition of human HDAC4 using Boc-Lys(trifluoroacetyl)-AMC as fluorogenic substrate preincubated for 10 mins followed by substrate addition by fluorescence based analysis
# Histone deacetylase 4, sequence (P56524 whole entry): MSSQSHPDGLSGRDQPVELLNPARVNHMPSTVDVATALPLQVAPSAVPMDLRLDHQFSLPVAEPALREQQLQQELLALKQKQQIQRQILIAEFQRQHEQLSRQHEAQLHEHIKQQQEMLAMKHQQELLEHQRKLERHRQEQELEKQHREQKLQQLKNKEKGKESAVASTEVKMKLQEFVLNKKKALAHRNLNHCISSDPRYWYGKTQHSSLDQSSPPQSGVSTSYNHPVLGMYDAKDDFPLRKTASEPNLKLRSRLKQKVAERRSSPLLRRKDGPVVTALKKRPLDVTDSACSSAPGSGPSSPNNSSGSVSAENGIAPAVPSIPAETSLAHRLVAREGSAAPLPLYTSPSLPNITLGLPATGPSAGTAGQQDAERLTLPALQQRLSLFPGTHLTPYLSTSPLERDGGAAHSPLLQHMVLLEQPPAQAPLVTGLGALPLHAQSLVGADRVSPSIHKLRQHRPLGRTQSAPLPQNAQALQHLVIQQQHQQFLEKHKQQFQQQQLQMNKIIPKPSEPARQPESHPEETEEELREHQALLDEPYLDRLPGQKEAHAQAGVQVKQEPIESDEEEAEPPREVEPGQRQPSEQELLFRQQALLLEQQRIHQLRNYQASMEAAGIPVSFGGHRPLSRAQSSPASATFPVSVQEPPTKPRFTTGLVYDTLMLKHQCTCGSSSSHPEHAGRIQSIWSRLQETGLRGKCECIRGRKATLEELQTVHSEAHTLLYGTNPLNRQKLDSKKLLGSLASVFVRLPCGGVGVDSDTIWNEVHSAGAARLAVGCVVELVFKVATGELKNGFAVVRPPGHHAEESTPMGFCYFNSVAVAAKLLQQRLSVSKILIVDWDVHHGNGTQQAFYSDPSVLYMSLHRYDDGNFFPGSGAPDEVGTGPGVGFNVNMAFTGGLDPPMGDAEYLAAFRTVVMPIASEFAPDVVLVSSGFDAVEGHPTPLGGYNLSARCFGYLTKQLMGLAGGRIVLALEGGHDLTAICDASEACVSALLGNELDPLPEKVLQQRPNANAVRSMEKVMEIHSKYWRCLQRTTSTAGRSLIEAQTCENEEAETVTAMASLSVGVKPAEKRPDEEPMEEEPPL
# HepG2 = experiment: Antiproliferative activity against human HepG2 cells assessed as inhibition of cell growth incubated for 72 hrs by luminescence based analysis; assay type: functional; settings: HepG2, 72 h
# HCT-116 [8] = experiment: Induction of apoptosis in human HCT-116 cells assessed as dead cells at 0.125 uM incubated for 24 hrs by AnnexinV-FITC/PI staining based flow cytometry (reference value: 4.62 %); assay type: functional
# Histone deacetylase 11 = target: T2, Histone deacetylase 11 (Homo sapiens, UniProt Q96DB2); experiment: Inhibition of human HDAC11 using Boc-Lys(trifluoroacetyl)-AMC as fluorogenic substrate preincubated for 10 mins followed by substrate addition by fluorescence based analysis
# T2 sequence (Q96DB2 whole entry): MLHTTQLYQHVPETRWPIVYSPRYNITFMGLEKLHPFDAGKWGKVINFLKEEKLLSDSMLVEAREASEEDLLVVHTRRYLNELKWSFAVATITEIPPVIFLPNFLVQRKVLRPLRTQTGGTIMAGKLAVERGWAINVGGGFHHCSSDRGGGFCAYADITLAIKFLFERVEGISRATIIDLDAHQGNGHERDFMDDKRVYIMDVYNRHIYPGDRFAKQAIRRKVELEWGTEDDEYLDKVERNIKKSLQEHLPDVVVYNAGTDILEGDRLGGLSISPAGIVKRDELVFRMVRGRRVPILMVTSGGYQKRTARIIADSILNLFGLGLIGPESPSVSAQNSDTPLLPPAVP
# HCT-116 [9] = experiment: Antitumor activity against human HCT-116 cells xenografted in BALB/c mouse assessed as reduction in tumor growth at 50 mg/kg, po qd administered for 3 weeks and measured every 3 days by vernier caliper analysis; assay type: functional, organism-based
# HCT-116 [10] = experiment: Induction of apoptosis in human HCT-116 cells assessed as viable cells at 0.5 uM incubated for 24 hrs by AnnexinV-FITC/PI staining based flow cytometry (reference value: 93.64%); assay type: functional; settings: read-out: Activity
# HCT-116 [11] = experiment: Induction of apoptosis in human HCT-116 cells assessed as late apoptotic cells at 0.5 uM incubated for 24 hrs by AnnexinV-FITC/PI staining based flow cytometry (reference value: 0.82 %); assay type: functional
# HCT-116 [12] = experiment: Induction of apoptosis in human HCT-116 cells assessed as late apoptotic cells at 0.25 uM incubated for 24 hrs by AnnexinV-FITC/PI staining based flow cytometry (reference value: 0.82 %); assay type: functional
# Histone deacetylase 8 = target: T3, Histone deacetylase 8 (Homo sapiens, UniProt Q9BY41); experiment: Inhibition of human HDAC8 using RHKAcKAc as fluorogenic substrate preincubated for 10 mins followed by substrate addition by fluorescence based analysis
# T3 sequence (Q9BY41 whole entry): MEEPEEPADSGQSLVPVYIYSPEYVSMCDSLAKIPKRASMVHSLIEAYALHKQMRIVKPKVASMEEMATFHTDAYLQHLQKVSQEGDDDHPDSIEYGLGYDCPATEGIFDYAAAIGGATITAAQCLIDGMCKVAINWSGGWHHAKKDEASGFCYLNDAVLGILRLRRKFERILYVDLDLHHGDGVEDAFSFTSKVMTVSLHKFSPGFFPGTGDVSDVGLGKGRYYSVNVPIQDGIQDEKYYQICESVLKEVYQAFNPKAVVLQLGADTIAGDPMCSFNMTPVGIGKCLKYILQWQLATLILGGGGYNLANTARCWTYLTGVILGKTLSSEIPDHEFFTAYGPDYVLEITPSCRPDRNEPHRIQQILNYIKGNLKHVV
# Histone deacetylase 1 [13] = target: T1, Histone deacetylase 1; experiment: Inhibition of human HDAC1 using RHKKAc fluorogenic peptide as substrate preincubated for 10 mins followed by substrate addition by fluorescence based analysis
# HCT-116 [14] = experiment: Induction of apoptosis in human HCT-116 cells assessed as early apoptotic cells at 0.5 uM incubated for 24 hrs by AnnexinV-FITC/PI staining based flow cytometry (reference value: 0.93 %); assay type: functional
# HCT-116 [15] = experiment: Induction of apoptosis in human HCT-116 cells assessed as early apoptotic cells at 0.25 uM incubated for 24 hrs by AnnexinV-FITC/PI staining based flow cytometry (reference value: 0.93 %); assay type: functional
# Histone deacetylase 1 [16] = target: T1, Histone deacetylase 1; experiment: Inhibition of HDAC1 in human HCT-116 cells assessed as increase in TRAIL protein expression at 0.5 uM incubated for 12 hrs by Western blot analysis; assay type: cell-based
# HCT-116 [17] = experiment: Effect on TRAIL protein expression in human HCT-116 cells incubated for 12 hrs by Western blot analysis; assay type: functional, cell-based; settings: dose 0.125-0.5 µM, DDE = dose-dependent effect
# Histone deacetylase 1 [18] = target: T1, Histone deacetylase 1; experiment: Inhibition of HDAC1 in human HCT-116 cells assessed as increase in Ac-H4 acetylation at 0.5 uM incubated for 12 hrs by Western blot analysis; assay type: cell-based
# HCT-116 [19] = experiment: Upregulation of TRAIL mRNA expression in human HCT-116 cells at 0.25 uM incubated for 12 hrs by RT-PCR analysis; assay type: functional, cell-based
# HCT-116 [20] = experiment: Induction of apoptosis in human HCT-116 cells assessed as viable cells at 0.25 uM incubated for 24 hrs by AnnexinV-FITC/PI staining based flow cytometry (reference value: 93.64%); assay type: functional; settings: read-out: Activity
# HCT-116 [21] = experiment: Upregulation of DR5 mRNA expression in human HCT-116 cells at 0.25 uM incubated for 12 hrs by RT-PCR analysis; assay type: functional, cell-based
compound,measurement,setting,value
COc1ccccc1CN1C(=O)C2=C(CCN(Cc3ccc(C(=O)Nc4ccccc4N)cc3)C2)N2CCN=C12,Activity,[1],Non-Toxic
same,Activity,HCT-116 [2],9.59%
same,inhibition,Histone deacetylase 1 [3],Active
same,Activity,HCT-116 [4],Dde
same,Activity,[5],Non-Toxic
same,IC50,MV4-11,563 nM
same,Activity,HCT-116 [6],0.87%
same,Activity,HCT-116 [7],Dde
same,IC50,Histone deacetylase 4,> 10000 nM
same,IC50,HepG2,2670 nM
same,Activity,HCT-116 [8],6.33%
same,IC50,Histone deacetylase 11,> 10000 nM
same,Activity,HCT-116 [9],Active
same,viability at 0.5 µM,HCT-116 [10],87.2%
same,Activity,HCT-116 [11],2%
same,Activity,HCT-116 [12],1.82%
same,IC50,Histone deacetylase 8,> 10000 nM
same,IC50,Histone deacetylase 1 [13],156 nM
same,Activity,HCT-116 [14],1.22%
same,Activity,HCT-116 [15],1.18%
same,inhibition,Histone deacetylase 1 [16],Active
same,Activity,HCT-116 [17],Dde
same,inhibition,Histone deacetylase 1 [18],Active
same,Activity,HCT-116 [19],Active
same,viability at 0.25 µM,HCT-116 [20],93%
same,Activity,HCT-116 [21],Active
